# Data: ChEMBL document CHEMBL1130186, “Potent alpha 4 beta 1 peptide antagonists as potential anti-inflammatory agents” (J Med Chem, 1997)
# *1 amine or outer side, *2 acyl side, *3 side chain or, on linkers, in order; H or OH if unused. Where a SMILES comes first, the peptide text is derived from it. Bridges are numbered along the chain shown (N, C = ends). [ ]: non-standard residue; d: D form. The star is where a group is joined. ξ: configuration not given here. X7 = O=C([C@H]1[C@@H](c2ccc(O)cc2)CCN1[*:1])[*:2]; X3 = O=C([C@H]1[C@H](c2ccc(O)cc2)CCN1[*:1])[*:2]; Oic(3aξ,7aξ) = O=C(O)[C@@H]1CC2CCCCC2N1; Fmoc = O=C(OCC1c2ccccc2-c2ccccc21)*; 1Naphthoyl = O=C(c1cccc2ccccc12)*; 2Naphthoyl = O=C(c1ccc2ccccc2c1)*; Hyp = O=C(O)[C@@H]1C[C@@H](O)CN1; Cha = N[C@@H](CC1CCCCC1)C(=O)O; Aic = NC1(C(=O)O)Cc2ccccc2C1; Chg = N[C@H](C(=O)O)C1CCCCC1; Phg = N[C@H](C(=O)O)c1ccccc1; 3Amb = NCc1cccc(C(=O)O)c1; 4Amb = NCc1ccc(C(=O)O)cc1; Pip = O=C(O)[C@@H]1CCCCN1; 3Abz = Nc1cccc(C(=O)O)c1; 4Abz = Nc1ccc(C(=O)O)cc1; 2Abz = Nc1ccccc1C(=O)O; Bz = O=C(c1ccccc1)*; Ava = NCCCCC(=O)O; Sar = CNCC(=O)O
# How the values were obtained:
# Integrin alpha-4/beta-1 [1] = target: T1, Integrin alpha-4/beta-1 (Homo sapiens, UniProt P05556+P13612); assay: Inhibition of fluorescently labeled alpha4-beta1 positive Ramos cells binding to immobilized VCAM-1.; format: cell-based
# T1 sequence (P05556 whole entry): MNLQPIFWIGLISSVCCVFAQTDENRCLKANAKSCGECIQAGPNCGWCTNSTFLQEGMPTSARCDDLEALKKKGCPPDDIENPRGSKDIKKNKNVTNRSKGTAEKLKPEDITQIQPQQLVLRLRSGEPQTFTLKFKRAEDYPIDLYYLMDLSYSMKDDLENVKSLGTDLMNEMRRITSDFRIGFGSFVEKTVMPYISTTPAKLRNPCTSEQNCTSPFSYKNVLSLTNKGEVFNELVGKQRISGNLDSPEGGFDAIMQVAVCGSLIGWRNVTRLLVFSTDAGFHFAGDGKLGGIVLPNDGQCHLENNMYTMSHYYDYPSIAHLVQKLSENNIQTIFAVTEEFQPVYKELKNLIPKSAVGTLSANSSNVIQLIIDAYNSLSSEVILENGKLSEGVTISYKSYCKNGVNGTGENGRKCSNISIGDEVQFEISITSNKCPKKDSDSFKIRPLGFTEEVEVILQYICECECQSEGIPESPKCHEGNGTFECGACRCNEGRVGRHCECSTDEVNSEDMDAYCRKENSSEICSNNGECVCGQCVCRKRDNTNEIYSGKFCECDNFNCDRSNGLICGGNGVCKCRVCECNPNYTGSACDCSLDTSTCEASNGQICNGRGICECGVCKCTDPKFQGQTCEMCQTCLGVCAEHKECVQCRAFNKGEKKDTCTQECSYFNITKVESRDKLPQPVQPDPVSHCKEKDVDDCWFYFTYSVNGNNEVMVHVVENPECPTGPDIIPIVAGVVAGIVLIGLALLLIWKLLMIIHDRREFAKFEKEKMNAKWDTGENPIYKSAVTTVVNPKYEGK
# T1 sequence (P13612 whole entry): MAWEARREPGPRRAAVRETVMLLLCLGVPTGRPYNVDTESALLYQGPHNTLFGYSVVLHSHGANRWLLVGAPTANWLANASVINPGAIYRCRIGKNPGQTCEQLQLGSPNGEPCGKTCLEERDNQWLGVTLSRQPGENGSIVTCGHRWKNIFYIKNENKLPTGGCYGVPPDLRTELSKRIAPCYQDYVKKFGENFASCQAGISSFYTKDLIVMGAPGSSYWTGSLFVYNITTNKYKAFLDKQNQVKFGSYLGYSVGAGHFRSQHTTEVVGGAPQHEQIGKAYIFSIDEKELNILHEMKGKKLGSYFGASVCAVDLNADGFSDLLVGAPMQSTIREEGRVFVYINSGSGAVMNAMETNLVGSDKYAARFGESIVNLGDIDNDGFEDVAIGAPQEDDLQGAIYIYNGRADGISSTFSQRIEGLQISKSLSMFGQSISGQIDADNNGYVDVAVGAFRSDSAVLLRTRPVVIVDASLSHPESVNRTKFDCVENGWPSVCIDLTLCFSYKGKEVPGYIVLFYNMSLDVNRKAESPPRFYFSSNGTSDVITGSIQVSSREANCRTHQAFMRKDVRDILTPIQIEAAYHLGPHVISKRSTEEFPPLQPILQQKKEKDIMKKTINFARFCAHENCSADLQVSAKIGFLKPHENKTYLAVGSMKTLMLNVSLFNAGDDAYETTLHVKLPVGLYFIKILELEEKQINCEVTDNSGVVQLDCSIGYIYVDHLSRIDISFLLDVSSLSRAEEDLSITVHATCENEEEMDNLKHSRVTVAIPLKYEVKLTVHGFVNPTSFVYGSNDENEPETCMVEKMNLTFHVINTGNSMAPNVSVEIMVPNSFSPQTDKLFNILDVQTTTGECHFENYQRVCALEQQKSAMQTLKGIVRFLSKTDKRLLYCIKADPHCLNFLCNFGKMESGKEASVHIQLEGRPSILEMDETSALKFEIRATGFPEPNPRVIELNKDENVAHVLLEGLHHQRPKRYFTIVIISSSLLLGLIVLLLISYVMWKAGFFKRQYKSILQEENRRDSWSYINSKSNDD
# Integrin alpha-4/beta-1 [2] = target: T1, Integrin alpha-4/beta-1; assay: Inhibition of purified alpha-4 beta-1 binding to VCAM-1 was determined in an ELISA assay.; format: protein-complex assay
Compound,IC50 (Integrin alpha-4/beta-1 [1]) [µM],IC50 (Integrin alpha-4/beta-1 [2]) [µM]
N[C@@H](Cc1ccc(O)cc1)C(=O)N[C@H]1CSSC[C@@H](C(=O)O)NC(=O)C2CCC(CC2)CNC1=O,19,0.1
N[C@H](Cc1ccc(O)cc1)C(=O)N[C@H]1CSSC[C@@H](C(=O)O)NC(=O)[C@@H]2CCCN2C(=O)[C@H](CO)NC1=O,126,0.89
CC1CNC(=O)[C@@H](NC(=O)[C@@H](N)Cc2ccc(O)cc2)CSSC[C@@H](C(=O)O)NC1=O (stereo partly specified),2.7,0.047
O=C(N[C@H]1CSSC[C@@H](C(=O)O)NC(=O)[C@@H]2CCCN2C(=O)[C@H](CO)NC1=O)c1cccc2ccccc12 (1Naphthoyl-CSPC-OH; disulfide 1-4),6.3,0.097
O=C(N[C@H]1CSSC[C@@H](C(=O)O)NC(=O)[C@@H]2CCCN2C(=O)[C@H](CO)NC1=O)c1ccc2ccccc2c1 (2Naphthoyl-CSPC-OH; disulfide 1-4),3.6,0.054
CC(=O)N[C@@H](CCCN=C(N)N)C(=O)N[C@H]1CSSC[C@@H](C(=O)O)NC(=O)[C@@H]2CCCN2C(=O)[C@H](CC(=O)O)NC1=O (Ac-RCDPC-OH; disulfide 2-5),40,1.3
CC(=O)N[C@@H](Cc1ccc(O)cc1)C(=O)N[C@H]1CSSC[C@@H](C(=O)O)NC(=O)CNC(=O)[C@H](C)NC1=O (Ac-YCAGC-OH; disulfide 2-5),–,22
CC(=O)N[C@@H](Cc1ccc(O)cc1)C(=O)N[C@H]1CSSC[C@@H](C(N)=O)NC(=O)[C@@H]2CCCN2C(=O)[C@H](C)NC1=O (Ac-YCAPC-NH2; disulfide 2-5),–,0.32
CC(=O)N[C@@H](Cc1ccc(O)cc1)C(=O)N[C@H]1CSSC[C@@H](C(=O)O)NC(=O)[C@@H]2CCCN2C(=O)[C@H](C)NC1=O (Ac-YCAPC-OH; disulfide 2-5),0.31,0.004
CC(=O)N[C@@H](Cc1ccc(O)cc1)C(=O)N[C@H]1CSSC[C@@H](C(=O)O)NC(=O)[C@H](c2ccccc2)NC(=O)[C@H](C)NC1=O (Ac-YCA[Phg]C-OH; disulfide 2-5),33,0.076
CC(=O)N[C@@H](Cc1ccc(O)cc1)C(=O)N[C@H]1CSSC[C@@H](C(=O)O)NC(=O)[C@@H]2CCCCN2C(=O)[C@H](C)NC1=O (Ac-YCA[Pip]C-OH; disulfide 2-5),0.02,0.001
CC(=O)N[C@@H](Cc1ccc(O)cc1)C(=O)N[C@H]1CSSC[C@@H](C(=O)O)NC(=O)CN(C)C(=O)[C@H](C)NC1=O (Ac-YCA[Sar]C-OH; disulfide 2-5),–,0.71
CC(=O)N[C@@H](Cc1ccc(O)cc1)C(=O)N[C@H]1CSSC[C@@H](C(=O)O)NC(=O)[C@@H]2CCCN2C(=O)[C@H](CO)NC1=O (Ac-YCSPC-OH; disulfide 2-5),0.12,0.002
CC(=O)N[C@@H](Cc1ccc(O)cc1)C(=O)N[C@H]1CSSC[C@@H](C(=O)O)NC(=O)[C@@H]2CCCN2C(=O)[C@H]([C@@H](C)O)NC1=O (Ac-YCTPC-OH; disulfide 2-5),0.32,0.005
CC(=O)N[C@@H](Cc1ccc(O)cc1)C(=O)N[C@H]1CSSC[C@@H](C(=O)O)NC(=O)[C@@H]2CCCN2C(=O)[C@H](Cc2ccc(O)cc2)NC1=O (Ac-YCYPC-OH; disulfide 2-5),0.23,0.003
CC(=O)N1CC[C@@H](c2ccc(O)cc2)[C@@H]1C(=O)N[C@H]1CSSC[C@@H](C(=O)O)NC(=O)[C@@H]2CCCN2C(=O)[C@H](CO)NC1=O (Ac-[X3]CSPC-OH; disulfide 2-5),0.008,0.0005
CC(=O)N1CC[C@H](c2ccc(O)cc2)[C@@H]1C(=O)N[C@H]1CSSC[C@@H](C(=O)O)NC(=O)[C@@H]2CCCN2C(=O)[C@H](CO)NC1=O (Ac-[X7]CSPC-OH; disulfide 2-5),–,0.004
O=C(N[C@H]1CSSC[C@@H](C(=O)O)NC(=O)[C@@H]2CCCN2C(=O)[C@H](CO)NC1=O)c1ccccc1 (Bz-CSPC-OH; disulfide 1-4),1.9,0.134
N=C(N)NCCC[C@H](NC(=O)OCC1c2ccccc2-c2ccccc21)C(=O)N[C@H]1CSSC[C@@H](C(=O)O)NC(=O)[C@@H]2CCCN2C(=O)[C@H](CC(=O)O)NC1=O (Fmoc-RCDPC-OH; disulfide 2-5),15,0.13
N[C@@H](Cc1ccccc1)C(=O)N[C@H]1CSSC[C@@H](C(=O)O)NC(=O)[C@@H]2CCCN2C(=O)[C@H](CO)NC1=O (H-FCSPC-OH; disulfide 2-5),15,1.5
NC(N)=NCCC[C@H](NC(=O)[C@@H](N)Cc1ccccc1)C(=O)N[C@H]1CSSC[C@@H](C(=O)O)NC(=O)[C@@H]2CCCN2C(=O)[C@H](CC(=O)O)NC1=O (H-FRCDPC-OH; disulfide 3-6),100,2.1
NCCCC[C@H](N)C(=O)N[C@H]1CSSC[C@@H](C(=O)O)NC(=O)[C@@H]2CCCN2C(=O)[C@H](CC(=O)O)NC1=O (H-KCDPC-OH; disulfide 2-5),1000,250
CC(C)C[C@H](N)C(=O)N[C@@H](CCCNC(=N)N)C(=O)N[C@H]1CSSC[C@@H](C(=O)O)NC(=O)[C@@H]2CCCN2C(=O)[C@H](CC(=O)O)NC1=O (H-LRCDPC-OH; disulfide 3-6),250,21

Compound,IC50 (Integrin alpha-4/beta-1 [1]) [µM],IC50 (Integrin alpha-4/beta-1 [2]) [µM]
NC(=O)[C@@H]1CSSC[C@H](NC(=O)[C@@H](N)CCCN=C(N)N)C(=O)N[C@@H](CC(=O)O)C(=O)N2CCC[C@H]2C(=O)N1 (H-RCDPC-NH2; disulfide 2-5),–,50
N=C(N)NCCC[C@H](NC(=O)[C@@H](N)Cc1c[nH]c2ccccc12)C(=O)N[C@H]1CSSC[C@@H](C(=O)O)NC(=O)[C@@H]2CCCN2C(=O)[C@H](CC(=O)O)NC1=O (H-WRCDPC-OH; disulfide 3-6),100,1.2
C[C@H](NC(=O)[C@@H](N)Cc1ccc(O)cc1)C(=O)N[C@H]1CSSC[C@@H](C(=O)O)NC(=O)[C@@H]2CCCN2C(=O)[C@H](CC(=O)O)NC1=O (H-YACDPC-OH; disulfide 3-6),5,0.21
C[C@@H]1NC(=O)[C@@H](NC(=O)[C@@H](N)Cc2ccc(O)cc2)CSSC[C@@H](C(=O)O)NC1=O (H-YCAC-OH; disulfide 2-4),350,9.4
C[C@@H]1NC(=O)[C@@H](NC(=O)[C@@H](N)Cc2ccc(O)cc2)CSSC[C@@H](C(=O)O)NC(=O)[C@H](Cc2ccccc2)NC1=O (H-YCAFC-OH; disulfide 2-5),182,2.8
CC[C@H](C)[C@@H]1NC(=O)[C@H](C)NC(=O)[C@@H](NC(=O)[C@@H](N)Cc2ccc(O)cc2)CSSC[C@@H](C(=O)O)NC1=O (H-YCAIC-OH; disulfide 2-5),0.94,0.023
CC(C)C[C@@H]1NC(=O)[C@H](C)NC(=O)[C@@H](NC(=O)[C@@H](N)Cc2ccc(O)cc2)CSSC[C@@H](C(=O)O)NC1=O (H-YCALC-OH; disulfide 2-5),10.5,0.034
C[C@@H]1NC(=O)[C@@H](NC(=O)[C@@H](N)Cc2ccc(O)cc2)CSSC[C@@H](C(=O)O)NC(=O)[C@@H]2CCCN2C1=O (H-YCAPC-OH; disulfide 2-5),0.12,0.005
C[C@@H]1NC(=O)[C@@H](NC(=O)[C@@H](N)Cc2ccc(O)cc2)CSSC[C@@H](C(=O)O)NC(=O)C2(Cc3ccccc3C2)NC1=O (H-YCA[Aic]C-OH; disulfide 2-5),–,36
C[C@@H]1NC(=O)[C@@H](NC(=O)[C@@H](N)Cc2ccc(O)cc2)CSSC[C@@H](C(=O)O)NC(=O)[C@H](CC2CCCCC2)NC1=O (H-YCA[Cha]C-OH; disulfide 2-5),25,0.14
C[C@@H]1NC(=O)[C@@H](NC(=O)[C@@H](N)Cc2ccc(O)cc2)CSSC[C@@H](C(=O)O)NC(=O)[C@H](C2CCCCC2)NC1=O (H-YCA[Chg]C-OH; disulfide 2-5),–,0.23
C[C@@H]1NC(=O)[C@@H](NC(=O)[C@@H](N)Cc2ccc(O)cc2)CSSC[C@@H](C(=O)O)NC(=O)[C@@H]2C[C@@H](O)CN2C1=O (H-YCA[Hyp]C-OH; disulfide 2-5),–,0.005
"C[C@@H]1NC(=O)[C@@H](NC(=O)[C@@H](N)Cc2ccc(O)cc2)CSSC[C@@H](C(=O)O)NC(=O)[C@@H]2CC3CCCCC3N2C1=O (stereo partly specified) (H-YCA[Oic(3aξ,7aξ)]C-OH; disulfide 2-5)",4.7,0.02
N[C@@H](Cc1ccc(O)cc1)C(=O)N[C@H]1CSSC[C@@H](C(=O)O)NC(=O)CNC1=O (H-YCGC-OH; disulfide 2-4),250,5.8
C[C@@H]1NC(=O)[C@@H]2CCCN2C(=O)[C@@H](NC(=O)[C@@H](N)Cc2ccc(O)cc2)CSSC[C@@H](C(=O)O)NC1=O (H-YCPAC-OH; disulfide 2-5),14,0.23
N[C@@H](Cc1ccc(O)cc1)C(=O)N[C@H]1CSSC[C@@H](C(=O)O)NC(=O)c2ccccc2NC1=O (H-YC[2Abz]C-OH; disulfide 2-4),80,1.3
NC(=O)[C@@H]1CSSC[C@H](NC(=O)[C@@H](N)Cc2ccc(O)cc2)C(=O)Nc2cccc(c2)C(=O)N1 (H-YC[3Abz]C-NH2; disulfide 2-4),–,12
N[C@@H](Cc1ccc(O)cc1)C(=O)N[C@H]1CSSC[C@@H](C(=O)O)NC(=O)c2cccc(c2)CNC1=O (H-YC[3Amb]C-OH; disulfide 2-4),210,6
N[C@@H](Cc1ccc(O)cc1)C(=O)N[C@H]1CSSC[C@@H](C(=O)O)NC(=O)c2ccc(cc2)NC1=O (H-YC[4Abz]C-OH; disulfide 2-4),4.2,0.16
N[C@@H](Cc1ccc(O)cc1)C(=O)N[C@H]1CSSC[C@@H](C(=O)O)NC(=O)c2ccc(cc2)CNC1=O (H-YC[4Amb]C-OH; disulfide 2-4),15,0.42
N[C@@H](Cc1ccc(O)cc1)C(=O)N[C@H]1CSSC[C@@H](C(=O)O)NC(=O)CCCCNC1=O (H-YC[Ava]C-OH; disulfide 2-4),17,0.41
N[C@@H](Cc1ccc(O)cc1)C(=O)N[C@H]1CSSC[C@@H](C(=O)O)NC(=O)[C@H](CC2CCCCC2)NC1=O (H-YC[Cha]C-OH; disulfide 2-4),–,18
N[C@@H](Cc1ccc(O)cc1)C(=O)N[C@H]1CSSC[C@@H](C(=O)O)NC(=O)[C@H](C2CCCCC2)NC1=O (H-YC[Chg]C-OH; disulfide 2-4),–,115
